Data from patent publication US20250367129A1, “Lipid Compounds and Uses Thereof” (Pfizer Inc., priority 2022, published 2025).

What was measured:
[1] = LNP size and polydispersity index by Malvern Zetasizer dynamic light scattering (CA HA modFlu mRNA LNPs); format: physicochemical; conditions: DLS; for Size (nm): LNP of the ionizable lipid:cholesterol:DSPC:ALC-0159 about 46.3:42.7:9.4:1.6, N:P about 6:1, CA HA modFlu mRNA; for PDI: LNP with CA HA modFlu mRNA
Description: (§1) Lipid nanoparticles were prepared and tested according to the general procedures described in U.S. Pat. No. 9,737,619 (PCT Pub. No. WO2015/199952) and U.S. Pat. No. 10,166,298 (PCT Pub. No. WO 2017/075531) and PCT Pub. No. WO2020/146805. The novel ionizable lipids of the invention, cholesterol, distearoylphosphatidylcholine (DSPC) and ALC-0159 2-[(polyethylene glycol)-2000]-N,N ditetradecylacetamide were solubilized in ethanol at a molar ratio of about 46.3:42.7:9.4:1.6. Lipid nanoparticles were made by mixing the lipids containing organic phase with the mRNA containing aqueous phase using an N:P ratio of about 6:1. The mRNA was diluted in buffer. Syringe pumps were used to mix the ethanolic lipid solution with the mRNA aqueous solution. The ethanol was then removed, and the external buffer replaced with another buffer (e.g., Tris) by dialysis. Finally, the lipid nanoparticles were filtered.
(§2) Total RNA concentration and encapsulation efficiency was assessed using the RiboGreen RNA quantitation assay. RNA integrity pre and post formulation was monitored by Agilent Fragment Analyzer capillary gel electrophoresis. Malvern Zetasizer dynamic light scattering (DLS) was used to determine LNP size and polydispersity index (PDI). In vitro expression of the novel ionizable lipid nanoparticles was assessed in HEK293F and Hela cells similar to described in Example 72. Nuclear count and identification of cells stained positive for gene of interest was done on an Opera Phenix high content imager (PerkinElmer, USA).

[2] = Encapsulation efficiency, RiboGreen RNA quantitation assay (CA HA modFlu mRNA LNPs); format: physicochemical; conditions: LNP with CA HA modFlu mRNA
Description: as §1, §2

[3] = tested on: Hela cells; assay: In vitro expression of novel ionizable lipid nanoparticles, high content imaging (CA HA modFlu mRNA); format: cell-based; conditions: LNP with CA HA modFlu mRNA
Description: (§3) Plated Hek293T or Hela cells were dosed with lipid nanoparticles in a total volume of 40 μl cell culture media and incubated overnight at 37° C. and 5% CO2. After fixation with 4% paraformaldehyde in PBS cells were washed in PBS containing 0.3% Triton-X100 and 3% BSA (w/v), followed by nuclear staining with Hoechst and antibody staining for the encoded gene of interest. Nuclear count and identification of cells stained positive for gene of interest was done on an Opera Phenix high content imager (PerkinElmer, USA).
as §1, §2

[4] = tested on: HEK293F cells; assay: as above; format: cell-based; conditions: LNP with CA HA modFlu mRNA
Description: as §3, §1, §2

SMILES	Size (nm) [1] [nm]	PDI [1]	EE % [2] [%]	EC50 Hela (ng/well) [3] [ng/well]	EC50 Hek293F (ng/well) [4] [ng/well]
CCCCCCCCC(CCCCCC)C(=O)OCC(COC(=O)C(CCCCCC)CCCCCCCC)N1CCC2(CCN(CCCCCO)CC2)CC1 (centres unmarked) [Example 5, 2-(9-(5-hydroxypentyl)-3,9-diazaspiro[5.5]undecan-3-yl)propane-1,3-diyl bis(2-hexyldecanoate)]	136	0.040	100	4.3	1.32
CCCCCCCCC(CCCCCC)C(=O)OCC(COC(=O)C(CCCCCC)CCCCCCCC)N1CCC2(CCN(CCCCO)C2)CC1 (centres unmarked) [Example 6, 2-(2-(4-hydroxybutyl)-2,8-diazaspiro[4.5]decan-8-yl)propane-1,3-diyl bis(2-hexyldecanoate)]	133	0.080	100	1.1	0.42
CCCCCCCCCCCCCCCC(=O)OCC(COC(=O)C(CCCCCC)CCCCCCCC)N1CCC2(CCN(CCCCO)CC2)CC1 (centres unmarked) [Example 7, 3-((2-hexyldecanoyl)oxy)-2-(9-(4-hydroxybutyl)-3,9-diazaspiro[5.5]undecan-3-yl)propyl palmitate]	84	0.130	99	2.0	20.4
CCCCCCCC(CCCCCCC)C(=O)OCC(COC(=O)C(CCCCCCC)CCCCCCC)N1CCC2(CCN(CCCNc3c(NC)c(=O)c3=O)CC2)CC1 [Example 8, 2-(9-(3-((2-(methylamino)-3,4-dioxocyclobut-1-en-1-yl)amino)propyl)-3,9-diazaspiro[5.5]undecan-3-yl)propane-1,3-diyl bis(2-heptylnonanoate)]	68	0.101	100	2.5	4.1
CCCCCCCCC(CCCCCC)C(=O)OCC(COC(=O)C(CCCCCC)CCCCCCCC)N1CCC2(CCN(CCCNC(=O)C3(C)CC3)CC2)CC1 (centres unmarked) [Example 9, 2-(9-(3-(1-methylcyclopropane-1-carboxamido)propyl)-3,9-diazaspiro[5.5]undecan-3-yl)propane-1,3-diyl bis(2-hexyldecanoate)]	96	0.070	99	4.2	2.6
CCCCCCCC(CCCCCCC)C(=O)OCC(COC(=O)C(CCCCCCC)CCCCCCC)N1CCC2(CCN(CCCO)CC2)CC1 [Example 10, 2-(9-(3-hydroxypropyl)-3,9-diazaspiro[5.5]undecan-3-yl)propane-1,3-diyl bis(2-heptylnonanoate)]	109	0.054	99	1.5	1.3
CCCCCCCCC(CCCCCC)C(=O)OCC(COC(=O)C(CCCCCC)CCCCCCCC)N1CCC2(CCN(CCCNS(=O)(=O)CC)CC2)CC1 (centres unmarked) [Example 11, 2-(9-(3-(ethylsulfonamido)propyl)-3,9-diazaspiro[5.5]undecan-3-yl)propane-1,3-diyl bis(2-hexyldecanoate)]	121	0.080	99	13.8	3.7
CCCCCCCC(CCCCCCC)C(=O)OCC(COC(=O)C(CCCCCCC)CCCCCCC)N1CCC2(CCN(CCCCO)C2)C1 (centres unmarked) [Example 12, 2-(7-(4-hydroxybutyl)-2,7-diazaspiro[4.4]nonan-2-yl)propane-1,3-diyl bis(2-heptylnonanoate)]	105	0.042	100	0.44	0.22
CCCCCCCC(CCCCCCC)C(=O)OCC(COC(=O)C(CCCCCCC)CCCCCCC)N1CC2(CCN(CCCCO)CC2)C1 [Example 13, 2-(7-(4-hydroxybutyl)-2,7-diazaspiro[3.5]nonan-2-yl)propane-1,3-diyl bis(2-heptylnonanoate)]	131	0.086	99	1.6	0.36
CCCCCCCC(CCCCCCC)C(=O)OCC(COC(=O)C(CCCCCCC)CCCCCCC)N1CCC2(CCN(CCCCO)CC2)C1 [Example 14, 2-(8-(4-hydroxybutyl)-2,8-diazaspiro[4.5]decan-2-yl)propane-1,3-diyl bis(2-heptylnonanoate)]	114	0.036	100	2.5	1.5
CCCCCCCCC(CCCCCC)C(=O)OCCC(CCOC(=O)C(CCCCCC)CCCCCCCC)N1CCC2(CCN(CCCCO)CC2)CC1 (centres unmarked) [Example 15, 3-(9-(4-hydroxybutyl)-3,9-diazaspiro[5.5]undecan-3-yl)pentane-1,5-diyl bis(2-hexyldecanoate)]	110	0.120	100	2.7	4.0
CCCCCCCCC(CCCCCC)C(=O)OCC(COC(=O)C(CCCCCC)CCCCCCCC)N1CCC2(CCN(CCCCCO)C2)C1 (centres unmarked) [Example 16, 2-(7-(5-hydroxypentyl)-2,7-diazaspiro[4.4]nonan-2-yl)propane-1,3-diyl bis(2-hexyldecanoate)]	134	0.090	99	0.18	0.11
CCCCCCCCC(CCCCCC)C(=O)OCC(COC(=O)C(CCCCCC)CCCCCCCC)N1CCC2(CCN(CCCCCO)C2)CC1 (centres unmarked) [Example 17, 2-(2-(5-hydroxypentyl)-2,8-diazaspiro[4.5]decan-8-yl)propane-1,3-diyl bis(2-hexyldecanoate)]	149	0.053	100	1.3	0.64
CCCCCCCC(CCCCCCC)C(=O)OCC(COC(=O)C(CCCCCCC)CCCCCCC)N1CC2(CCN(CCCCCO)CC2)C1 [Example 18, 2-(7-(5-hydroxypentyl)-2,7-diazaspiro[3.5]nonan-2-yl)propane-1,3-diyl bis(2-heptylnonanoate)]	149	0.060	99	1.4	0.57
CCCCCCCCC(CCCCCC)C(=O)OCCCC(COC(=O)C(CCCCCC)CCCCCCCC)N1CCC2(CCN(CCCCO)CC2)CC1 (centres unmarked) [Example 19, 2-(9-(4-hydroxybutyl)-3,9-diazaspiro[5.5]undecan-3-yl)pentane-1,5-diyl bis(2-hexyldecanoate)]	153	0.140	99	0.89	1.4
CCCCCCCC(CCCCCCC)C(=O)OCC(COC(=O)C(CCCCCCC)CCCCCCC)N1CCC2(CC1)CN(CCCCO)C2 [Example 20, 2-(2-(4-hydroxybutyl)-2,7-diazaspiro[3.5]nonan-7-yl)propane-1,3-diyl bis(2-heptylnonanoate)]	105	0.073	98	0.28	0.22
CCCCCCCCC(CCCCCC)C(=O)OCC(COC(=O)C(CCCCCC)CCCCCCCC)N1CCC2(CCN(C(C)CCCO)CC2)CC1 (centres unmarked) [Example 21, 2-(9-(5-hydroxypentan-2-yl)-3,9-diazaspiro[5.5]undecan-3-yl)propane-1,3-diyl bis(2-hexyldecanoate)]	159	0.064	99	0.41	0.28
CCCCCCCC(CCCCCCC)C(=O)OCC(COC(=O)C(CCCCCCC)CCCCCCC)N1CCC2(CCN(CCCCO)C2)CC1 [Example 22, 2-(2-(4-hydroxybutyl)-2,8-diazaspiro[4.5]decan-8-yl)propane-1,3-diyl bis(2-heptylnonanoate)]	107	0.065	99	0.39	0.14
CCCCCCCCC(CCCCCC)C(=O)OCC(COC(=O)C(CCCCCC)CCCCCCCC)N1CCC2(CCN(CCCCO)CC2)CC1 (centres unmarked) [Example 23, 2-(9-(4-hydroxybutyl)-3,9-diazaspiro[5.5]undecan-3-yl)propane-1,3-diyl bis(2-hexyldecanoate)]	144	0.090	100	1.2	0.47
